How the values were obtained:
[1] = test system: PGE2 generation in rat mesangial cells; test: Suppression of IL-1β/forskolin-stimulated PGE2 generation in rat renal mesangial cells; type: cell-based; conditions: for inhibition at 3 µM / IC50: Rattus norvegicus, Mesangial cell; for IC50: IL-1β plus forskolin, read-out: EC50 (μM), inhibition of PGE2 generation
Experimental: Rat renal mesangial cells (clone MZ B1), isolated and characterized as previously described, were cultivated in RPMI 1640 medium supplemented with 10% fetal bovine serum; 10 mM 4-(2-hydroxyethyl)-1-piperazineethanesulfonic acid (HEPES), pH 7.4; 6 µg/mL of bovine insulin; 5 µg/mL of transferrin; 5 nM sodium selenite; 100 units/mL of penicillin; and 100 µg/mL of streptomycin. The cells were incubated for 4 h in Dulbecco’s modified Eagle’s medium (DMEM) containing 10 mM HEPES, pH 7.4, and 0.1 mg/mL of fatty acid-free bovine serum albumin (BSA), prior to stimulation.
Confluent mesangial cells in 24-well plates were pretreated for 20 min with varying concentrations of inhibitors and then stimulated for 24 h in a total volume of 400 µL of DMEM containing 0.1 mg/mL of BSA, in the absence or presence of 1 nM interleukin 1β (IL-1) plus 5 μM forskolin (Fk). Thereafter, the supernatants were collected and centrifuged for 5 min at 1000× g. The PGE2 in the supernatant was quantified using an enzyme-linked immunoassay (Enzo Life Sciences, Lörrach, Germany) following the manufacturer’s recommendations.
Statistical analysis of the data was performed using one-way analysis of variance (ANOVA) followed by a Bonferroni’s post hoc test for multiple comparisons (GraphPad Prism 8.4.3., San Diego, CA, USA). The half maximal effective concentrations (EC50) of the inhibitors were calculated using the same software.

[2] = test system: rat-paw carrageenan-induced edema; test: Rat-paw carrageenan-induced-edema assay; type: in vivo; conditions: for In vivo anti-inflammatory activity compared with indomethacin: 0.01 mmol/kg, same dose as indomethacin
Experimental: The anti-inflammatory activities of selected aminobenzothiazole derivatives were determined by employing the rat-paw carrageenan-induced-edema assay, as previously described. Only male animals (180–220 g body weight) were used. Each group was composed of five animals. The animals were divided into three five-membered groups, and all the tested compounds were suspended in water (0.01 mmol/mL/kg body weight), with a few drops of Tween 80, and ground in a mortar before being administered intraperitoneally simultaneously. After treatment with the tested compounds in group 1, a 2nd group was used as a positive control (indomethacin at 0.01 mmol/mL/kg body weight, i.p.), and another group (3rd) served as the control in which water was administered (negative control). The compounds were injected intraperitoneally at the same time as carrageenan was given by intradermal injection. The rats were euthanized 3.5 h post-injection. The weight of the uninjected with carrageenan paw was subtracted from the weight of the injected paw for each animal. The change in paw weight for the treated animals was compared to that for the control animals and expressed as the percent inhibition of edema. The values of CPE % are the means from three different experiments with standard errors of the mean less than 10%. The statistical significance of the results was established with Student’s t-test, for * p < 0.01 and ** p < 0.05. All the animal experiments performed in the manuscript were conducted in compliance with institutional guidelines. Our studies were in accordance with recognized guidelines on animal experimentation (guidelines for the care and use of laboratory animals published by the Greek Government 160/1991, based on EU regulations 86/609). The rats were kept in the Centre of the School of Veterinary Medicine (EL54 BIO42), Aristotle University of Thessaloniki, which is registered by the official state veterinary authorities (presidential degree 56/2013, in harmonization with the European Directive 2010/63/EEC). The experimental protocols were approved by the Animal Ethics Committee of the Prefecture of Central Macedonia (no. 270079/2500).

[3] = 24 h, 3 μM, 1 nM IL-1β plus 5 μM forskolin

melting point [°C]	SMILES	inhibition at 3 µM [1, 3] [%]	also measured
–	COC(CCc1ccc2ccccc2c1)Nc1nc2ccccc2s1 (centres unmarked) [Compound 18a, N-(1-Methoxy-3-(Naphthalen-2-yl)Propyl)Benzo[d]Thiazol-2-Amine]	46	–
104 to 106	COc1ccc(CCCNc2nc3ccccc3s2)cc1 [Compound 19c, N-(3-(4-Methoxyphenyl)Propyl)Benzo[d]Thiazol-2-Amine]	62	–
115 to 116	FC(F)(F)Oc1ccc2nc(NCCCc3cccc4ccccc34)sc2c1 [Compound 19h, N-(3-(Naphthalen-1-yl)Propyl)-6-(Trifluoromethoxy)Benzo[d]Thiazol-2-Amine]	0	–
47 to 49	O=C(CCc1ccc2ccccc2c1)Nc1nc2ccccc2[nH]1 [Compound 5e, N-(1H-Benzo[d]Imidazol-2-yl)-3-(Naphthalen-2-yl)Propanamide]	29	–
252 to 254	COc1ccc(/C=C/C(=O)Nc2nc3ccccc3s2)cc1 [Compound 9b, (E)-N-(Benzo[d]Thiazol-2-yl)-3-(4-Methoxyphenyl)Acrylamide]	25	–
99 to 102	c1ccc(CCCNc2nc3ccccc3s2)cc1 [Compound 19b, N-(3-Phenylpropyl)Benzo[d]Thiazol-2-Amine]	> 80	IC50 ([1]; 0.1 to 3 µM, 24 h): 0.177 µM
228 to 230	O=C(/C=C/c1ccc2ccccc2c1)Nc1nc2ccccc2s1 [Compound 9a, (E)-N-(Benzo[d]Thiazol-2-yl)-3-(Naphthalen-2-yl)Acrylamide]	28	–
85 to 87	COc1ccc(CCCNc2nc3ccccc3o2)cc1 [Compound 23b, N-(3-(4-Methoxyphenyl)Propyl)Benzo[d]Oxazol-2-Amine]	79	–
209 to 211	O=C(Nc1nc2ccccc2s1)OCc1ccc2ccccc2c1 [Compound 16b, Naphthalen-2-ylmethyl Benzo[d]Thiazol-2-ylcarbamate]	39	–
53 to 55	O=C(CCCc1ccc2ccccc2c1)Nc1nc2ccccc2s1 [Compound 5a, N-(Benzo[d]Thiazol-2-yl)-4-(Naphthalen-2-yl)Butanamide]	50	–
46 to 48	O=C(CCc1ccc2ccccc2c1)Nc1nc2ccccc2s1 [Compound 5b, N-(Benzo[d]Thiazol-2-yl)-3-(Naphthalen-2-yl)Propanamide]	> 80	IC50 ([1]; 0.1 to 3 µM, 24 h): 0.173 µM; In vivo anti-inflammatory activity compared with indomethacin [2]: higher than that of indomethacin; In vivo anti-inflammatory activity compared with indomethacin ([2]; listed as GK510): greater than that of indomethacin
83 to 84	c1ccc(CCCNc2nccs2)cc1 [Compound 19f, N-(3-Phenylpropyl)Thiazol-2-Amine]	20	–
134 to 137	c1ccc2c(CCCNc3nc4ccccc4s3)cccc2c1 [Compound 19d, N-(3-(Naphthalen-1-yl)Propyl)Benzo[d]Thiazol-2-Amine]	> 80	IC50 ([1]; 0.1 to 3 µM, 24 h): 0.399 µM
172 to 174	COc1ccc(CCC(=O)Nc2nc3ccccc3s2)cc1 [Compound 11, N-(Benzo[d]Thiazol-2-yl)-3-(4-Methoxyphenyl)Propanamide]	> 80	IC50 ([1]; 0.1 to 3 µM, 24 h): 0.916 µM
164 to 166	c1ccc2c(OCCNc3nc4ccccc4o3)cccc2c1 [Compound 23d, N-(2-(Naphthalen-1-yloxy)Ethyl)Benzo[d]Oxazol-2-Amine]	45	–
170 to 172	c1ccc2cc(OCCNc3nc4ccccc4s3)ccc2c1 [Compound 25a, N-(2-(Naphthalen-2-yloxy)Ethyl)Benzo[d]Thiazol-2-Amine]	63	–

melting point [°C]	SMILES	inhibition at 3 µM [1, 3] [%]	also measured
48 to 50	O=C(NCCCc1ccc2ccccc2c1)c1nc2ccccc2s1 [Compound 14, N-(3-(Naphthalen-2-yl)Propyl)Benzo[d]Thiazole-2-Carboxamide]	64	–
94 to 97	c1ccc2c(CCCNc3nccs3)cccc2c1 [Compound 19e, N-(3-(Naphthalen-1-yl)Propyl)Thiazol-2-Amine]	> 80	Concentration dependence of effect on PGE2 generation ([1]; 0.1 to 3 µM, low concentrations enhanced PGE2, 1 µM and 3 µM reduced it): biphasic effect
152 to 153	c1ccc2cc(OCCNc3nc4ccccc4o3)ccc2c1 [Compound 23c, N-(2-(Naphthalen-2-yloxy)Ethyl)Benzo[d]Oxazol-2-Amine]	> 80	IC50 ([1]; 0.1 to 3 µM, 24 h): 0.894 µM
170 to 173	c1ccc2c(OCCNc3nc4ccccc4s3)cccc2c1 [Compound 25b, N-(2-(Naphthalen-1-yloxy)Ethyl)Benzo[d]Thiazol-2-Amine]	57	–
153 to 155	O=C(COc1ccc2ccccc2c1)Nc1nc2ccccc2s1 [Compound 7, N-(Benzo[d]Thiazol-2-yl)-2-(Naphthalen-2-yloxy)Acetamide]	41	–
78 to 80	COC(CCc1ccc2ccccc2c1)Nc1nc2ccc(OC(F)(F)F)cc2s1 (centres unmarked) [Compound 18g, N-(1-Methoxy-3-(Naphthalen-2-yl)Propyl)-6-(Trifluoromethoxy)Benzo[d]Thiazol-2-Amine]	–	–
–	COC(CCc1ccccc1)Nc1nc2ccccc2s1 (centres unmarked) [Compound 18b, N-(1-Methoxy-3-Phenylpropyl)Benzo[d]Thiazol-2-Amine]	0	–
100 to 102	COC(CCc1cccc2ccccc12)Nc1nc2ccc(OC(F)(F)F)cc2s1 (centres unmarked) [Compound 18h, N-(1-Methoxy-3-(Naphthalen-1-yl)Propyl)-6-(Trifluoromethoxy)Benzo[d]Thiazol-2-Amine]	–	–
–	COc1ccc2c(c1)c(CC(=O)O)c(C)n2C(=O)c1ccc(Cl)cc1 [Indomethacin, reference compound]	–	% Reduction of Rat-Paw Edema ([2]; 0.01 mmol/kg i.p., given with carrageenan, 3.5 h post-injection): 37.3%
56 to 58	O=C(CCCc1ccc2ccccc2c1)Nc1nc2ccccc2[nH]1 [Compound 5f, N-(1H-Benzo[d]Imidazol-2-yl)-4-(Naphthalen-2-yl)Butanamide]	66	–
49 to 51	O=C(CCc1ccc2ccccc2c1)Nc1nc2ccccc2o1 [Compound 5c, N-(Benzo[d]Oxazol-2-yl)-3-(Naphthalen-2-yl)Propanamide]	49	–
–	COc1ccc(CCC(Nc2nc3ccccc3s2)OC)cc1 (centres unmarked) [Compound 18c, N-(1-Methoxy-3-(4-Methoxyphenyl)Propyl)Benzo[d]Thiazol-2-Amine]	0	–
52 to 55	O=C(CCCc1ccc2ccccc2c1)Nc1nc2ccccc2o1 [Compound 5d, N-(Benzo[d]Oxazol-2-yl)-4-(Naphthalen-2-yl)Butanamide]	73	–
128 to 130	c1ccc2cc(CCCNc3nc4ccccc4o3)ccc2c1 [Compound 23a, N-(3-(Naphthalen-2-yl)Propyl)Benzo[d]Oxazol-2-Amine]	> 80	IC50 ([1]; 0.1 to 3 µM, 24 h): 0.336 µM
150 to 152	FC(F)(F)Oc1ccc2nc(NCCCc3ccc4ccccc4c3)sc2c1 [Compound 19g, N-(3-(Naphthalen-2-yl)Propyl)-6-(Trifluoromethoxy)Benzo[d]Thiazol-2-Amine]	0	% Inhibition (at 3 μM) of PGE2 generation ([1]; 3 μM, 1 nM IL-1β plus 5 μM forskolin, 24 h, listed as 19): inactive
141 to 143	COc1ccc(COC(=O)Nc2nc3ccccc3s2)cc1 [Compound 16a, 4-Methoxybenzyl Benzo[d]Thiazol-2-ylcarbamate]	15	–

From article PMC8961538, “N-Acylated and N-Alkylated 2-Aminobenzothiazoles Are Novel Agents That Suppress the Generation of Prostaglandin E2” (Biomolecules, 2022)
